These results are taken from ChEMBL document CHEMBL5465560, “Selectivity Literature for EUbOPEN Chemogenomic Library” (2024).

Experiment [1] addresses T1, Dual specificity mitogen-activated protein kinase kinase 5 (Homo sapiens) (UniProt Q13163).
T1 sequence (whole entry): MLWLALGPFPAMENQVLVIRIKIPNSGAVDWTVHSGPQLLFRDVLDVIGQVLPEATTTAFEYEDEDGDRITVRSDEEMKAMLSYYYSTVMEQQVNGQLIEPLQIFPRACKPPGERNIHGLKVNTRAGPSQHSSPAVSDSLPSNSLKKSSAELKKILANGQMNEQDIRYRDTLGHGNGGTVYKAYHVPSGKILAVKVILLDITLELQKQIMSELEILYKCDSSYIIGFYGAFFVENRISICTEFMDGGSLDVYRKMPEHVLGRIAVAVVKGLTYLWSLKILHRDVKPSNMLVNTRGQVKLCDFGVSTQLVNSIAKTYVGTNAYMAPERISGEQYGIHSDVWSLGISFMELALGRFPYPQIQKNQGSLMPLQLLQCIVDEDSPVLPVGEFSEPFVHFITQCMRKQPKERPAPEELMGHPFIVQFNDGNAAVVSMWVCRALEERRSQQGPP
In words: Selectivity interaction (Kinase panel (Carna Biosciences)) EUB0001542aTs MAP2K5. The settings on record: at 1 µM.

The target in experiment [2] is T2, Mitogen-activated protein kinase kinase kinase 2 (Homo sapiens) (UniProt Q9Y2U5).
T2 sequence (whole entry): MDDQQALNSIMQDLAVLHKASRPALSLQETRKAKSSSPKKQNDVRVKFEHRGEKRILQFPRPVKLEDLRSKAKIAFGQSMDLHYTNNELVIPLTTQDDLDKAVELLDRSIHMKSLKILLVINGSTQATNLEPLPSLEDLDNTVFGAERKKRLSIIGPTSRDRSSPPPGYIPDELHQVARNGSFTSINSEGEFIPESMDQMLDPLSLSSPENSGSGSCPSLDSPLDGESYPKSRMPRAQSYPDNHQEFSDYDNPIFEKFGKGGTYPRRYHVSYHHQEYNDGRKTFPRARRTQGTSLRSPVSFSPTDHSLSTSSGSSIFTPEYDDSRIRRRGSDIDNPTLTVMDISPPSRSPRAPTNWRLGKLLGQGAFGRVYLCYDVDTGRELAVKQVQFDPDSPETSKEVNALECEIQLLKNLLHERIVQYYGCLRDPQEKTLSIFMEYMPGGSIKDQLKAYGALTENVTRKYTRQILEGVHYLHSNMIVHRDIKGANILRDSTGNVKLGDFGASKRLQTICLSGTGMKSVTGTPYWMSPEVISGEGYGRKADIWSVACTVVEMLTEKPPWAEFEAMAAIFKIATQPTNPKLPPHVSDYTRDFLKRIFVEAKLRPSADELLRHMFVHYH
In words: Selectivity interaction (Kinase panel (KiNativ target engagement assay in Jurkat cells)) EUB0001635a MAP3K2. Format: cell-based. The settings on record: at 1 µM.

In experiment [3] the target is Casein kinase I isoform gamma-3 (Homo sapiens) (UniProt Q9Y6M4). Nature of the experiment: Selectivity interaction (KinomeScan (DiscoverX)) EUB0000607a CSNK1G3. The conditions noted are these: at 10 µM.
Chain of Casein kinase I isoform gamma-3 (Homo sapiens) (Q9Y6M4 whole entry, looked up, canonical isoform): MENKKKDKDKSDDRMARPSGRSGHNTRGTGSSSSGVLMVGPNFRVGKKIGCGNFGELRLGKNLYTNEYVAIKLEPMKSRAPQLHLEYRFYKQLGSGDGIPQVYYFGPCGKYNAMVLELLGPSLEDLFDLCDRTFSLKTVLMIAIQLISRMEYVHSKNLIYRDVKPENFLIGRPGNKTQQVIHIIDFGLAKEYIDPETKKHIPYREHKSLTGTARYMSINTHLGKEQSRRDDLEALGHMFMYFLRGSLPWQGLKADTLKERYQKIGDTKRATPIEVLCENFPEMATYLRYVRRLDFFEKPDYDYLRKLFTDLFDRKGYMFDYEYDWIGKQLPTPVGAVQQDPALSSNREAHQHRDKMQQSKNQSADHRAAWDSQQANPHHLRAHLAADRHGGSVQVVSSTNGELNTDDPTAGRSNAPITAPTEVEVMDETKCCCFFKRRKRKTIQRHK
The target of experiment [4] is T3, Membrane-associated tyrosine- and threonine-specific cdc2-inhibitory kinase (Homo sapiens) (UniProt Q99640).
T3 sequence (whole entry): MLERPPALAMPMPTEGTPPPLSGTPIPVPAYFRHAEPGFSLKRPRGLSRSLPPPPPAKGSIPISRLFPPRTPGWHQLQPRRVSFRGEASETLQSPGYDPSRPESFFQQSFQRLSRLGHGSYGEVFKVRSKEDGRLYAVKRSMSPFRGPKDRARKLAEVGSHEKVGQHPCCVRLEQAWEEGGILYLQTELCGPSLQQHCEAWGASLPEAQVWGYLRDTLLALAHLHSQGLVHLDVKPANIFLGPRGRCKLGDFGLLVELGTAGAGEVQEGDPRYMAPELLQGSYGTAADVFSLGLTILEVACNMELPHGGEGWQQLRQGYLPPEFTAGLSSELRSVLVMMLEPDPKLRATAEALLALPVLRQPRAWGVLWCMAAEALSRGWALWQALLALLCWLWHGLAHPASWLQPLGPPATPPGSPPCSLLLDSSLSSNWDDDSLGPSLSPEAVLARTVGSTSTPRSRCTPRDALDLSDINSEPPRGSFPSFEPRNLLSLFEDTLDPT
Nature of the experiment: Selectivity interaction (KinomeScan (DiscoverX)) EUB0001079a PKMYT1. The settings on record: at 1 µM.

In the next experiment the target is T4, Peregrin (Homo sapiens) (UniProt P55201).
T4 sequence (whole entry): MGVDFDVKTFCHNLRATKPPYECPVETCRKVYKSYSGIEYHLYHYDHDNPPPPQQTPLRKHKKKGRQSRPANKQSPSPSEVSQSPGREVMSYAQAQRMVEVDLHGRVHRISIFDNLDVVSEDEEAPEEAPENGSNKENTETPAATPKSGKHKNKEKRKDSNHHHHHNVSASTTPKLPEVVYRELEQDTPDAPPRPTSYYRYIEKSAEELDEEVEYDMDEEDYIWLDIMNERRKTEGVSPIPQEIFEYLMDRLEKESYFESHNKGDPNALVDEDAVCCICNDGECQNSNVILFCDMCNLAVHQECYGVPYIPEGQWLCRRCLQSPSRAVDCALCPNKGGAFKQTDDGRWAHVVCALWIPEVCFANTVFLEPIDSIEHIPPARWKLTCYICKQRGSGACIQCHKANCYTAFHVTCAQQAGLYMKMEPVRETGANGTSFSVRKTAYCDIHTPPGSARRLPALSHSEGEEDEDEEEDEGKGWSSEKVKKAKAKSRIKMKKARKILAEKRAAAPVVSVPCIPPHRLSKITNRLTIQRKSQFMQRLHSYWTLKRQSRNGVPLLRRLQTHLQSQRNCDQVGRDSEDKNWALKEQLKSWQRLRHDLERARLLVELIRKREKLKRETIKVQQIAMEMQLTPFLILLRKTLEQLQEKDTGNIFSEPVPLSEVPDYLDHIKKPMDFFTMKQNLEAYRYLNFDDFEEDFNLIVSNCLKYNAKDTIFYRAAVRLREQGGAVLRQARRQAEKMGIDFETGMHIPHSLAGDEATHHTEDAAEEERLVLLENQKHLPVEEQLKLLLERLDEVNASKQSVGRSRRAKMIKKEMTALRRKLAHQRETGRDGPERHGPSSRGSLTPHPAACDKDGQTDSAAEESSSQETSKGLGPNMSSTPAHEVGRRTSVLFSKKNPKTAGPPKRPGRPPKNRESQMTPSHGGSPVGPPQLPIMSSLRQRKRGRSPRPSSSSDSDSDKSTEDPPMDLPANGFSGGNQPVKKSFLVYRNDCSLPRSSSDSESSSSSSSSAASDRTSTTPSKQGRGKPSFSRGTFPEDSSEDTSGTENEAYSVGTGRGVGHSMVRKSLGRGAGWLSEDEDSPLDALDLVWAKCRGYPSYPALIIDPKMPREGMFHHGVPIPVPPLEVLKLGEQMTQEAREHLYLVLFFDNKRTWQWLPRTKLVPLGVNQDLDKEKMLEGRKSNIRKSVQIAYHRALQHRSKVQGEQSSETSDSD
Nature of the experiment: Selectivity interaction (Bromodomain panel (DSF asssay)) EUB0000270b BRPF1.

Molecule `Cn1cc(Nc2nccc(N3CC4CCC(C3)N4C(=O)[C@@H]3CC3(F)F)n2)cn1` yielded a % of inhibition in experiment [1] of 70%.
Regarding `C=CC(=O)Nc1ccc(C(=O)Nc2[nH]nc3c2CN(C(=O)N[C@H](CN(C)C)c2ccccc2)C3(C)C)cc1`, the % of engagement in experiment [2] (Selectivity number of off-targets 0.0, Selectivity number of targets 233.0, Source Knowledge https://www.sciencedirect.com/science/article/pii/S2451945619300674?via%3Dihub) is -1.5%; in experiment [2], -1.9%.
`CNC(=O)Nc1ccc(-c2nc(N3CC4CCC(C3)O4)c3cnn(C4CCC5(CC4)OCCO5)c3n2)cc1` came in with a % of control in experiment [3] of 48%.
As for `Nc1cnc(N2CCc3cc(S(=O)(=O)Nc4c(F)cc(Cl)cc4F)cc(N4CCCC4=O)c32)nc1` [TP-020n], the % of control in experiment [4] was 99%.
At Peregrin (Homo sapiens), `Cc1cc(CN)cc(C)c1-c1ncn(C)c1-c1cncn1C` came in with a dTM of -1.75 K.
